Where two headings read alike, the source gives them in different places.
Columns and labels:
Test in all cases: SelectScreen Kinase Profiling, single point inhibition and IC50 for off-target kinases
Type in all cases: biochemical
off-target kinases [1] = biological target: off-target kinases (Homo sapiens, UniProt O75716); details: STK16 (PKL12), LanthaScreen Binding
off-target kinases [2] = biological target: off-target kinases (Homo sapiens, UniProt P00533, L858R); details: EGFR (ErbB1) L858R (mutant), ZLYTE, ATP Km app
off-target kinases (Homo sapiens, UniProt P00533, L858R), sequence (P00533 25-1210 L858R): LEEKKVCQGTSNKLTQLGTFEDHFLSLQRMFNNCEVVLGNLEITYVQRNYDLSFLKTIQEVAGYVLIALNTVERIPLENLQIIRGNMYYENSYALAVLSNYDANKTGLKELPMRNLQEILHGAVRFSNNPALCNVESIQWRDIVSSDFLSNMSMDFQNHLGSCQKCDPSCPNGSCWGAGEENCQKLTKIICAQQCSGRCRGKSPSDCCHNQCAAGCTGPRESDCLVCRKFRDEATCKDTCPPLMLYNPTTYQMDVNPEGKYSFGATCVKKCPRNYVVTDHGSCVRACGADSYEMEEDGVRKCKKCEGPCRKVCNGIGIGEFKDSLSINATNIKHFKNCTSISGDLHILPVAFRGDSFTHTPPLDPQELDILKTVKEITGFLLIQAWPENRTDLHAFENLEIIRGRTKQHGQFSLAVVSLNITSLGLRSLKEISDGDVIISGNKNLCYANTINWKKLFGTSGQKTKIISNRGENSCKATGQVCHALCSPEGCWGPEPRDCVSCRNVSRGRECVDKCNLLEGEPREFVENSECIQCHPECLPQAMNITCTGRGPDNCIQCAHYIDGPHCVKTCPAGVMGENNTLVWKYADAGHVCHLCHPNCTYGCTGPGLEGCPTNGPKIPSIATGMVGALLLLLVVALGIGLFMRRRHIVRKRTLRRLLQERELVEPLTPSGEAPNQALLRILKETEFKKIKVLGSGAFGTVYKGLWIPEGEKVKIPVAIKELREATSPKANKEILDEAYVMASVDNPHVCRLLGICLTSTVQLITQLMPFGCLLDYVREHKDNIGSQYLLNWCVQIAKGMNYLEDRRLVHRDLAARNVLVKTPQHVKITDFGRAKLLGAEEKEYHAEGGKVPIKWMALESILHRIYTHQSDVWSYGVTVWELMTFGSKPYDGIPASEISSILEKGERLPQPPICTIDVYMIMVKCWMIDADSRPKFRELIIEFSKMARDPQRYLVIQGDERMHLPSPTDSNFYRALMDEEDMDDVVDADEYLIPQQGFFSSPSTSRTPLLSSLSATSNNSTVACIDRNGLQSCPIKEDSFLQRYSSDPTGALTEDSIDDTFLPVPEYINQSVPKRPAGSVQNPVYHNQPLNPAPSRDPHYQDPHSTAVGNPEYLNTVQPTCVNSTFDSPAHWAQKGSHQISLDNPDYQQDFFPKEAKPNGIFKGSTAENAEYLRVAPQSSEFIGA

off-target kinases [3] = biological target: off-target kinases (Homo sapiens, UniProt P04629); details: NTRK1 (TRKA), ZLYTE, ATP Km app
off-target kinases (Homo sapiens, UniProt P04629), sequence (P04629 33-796): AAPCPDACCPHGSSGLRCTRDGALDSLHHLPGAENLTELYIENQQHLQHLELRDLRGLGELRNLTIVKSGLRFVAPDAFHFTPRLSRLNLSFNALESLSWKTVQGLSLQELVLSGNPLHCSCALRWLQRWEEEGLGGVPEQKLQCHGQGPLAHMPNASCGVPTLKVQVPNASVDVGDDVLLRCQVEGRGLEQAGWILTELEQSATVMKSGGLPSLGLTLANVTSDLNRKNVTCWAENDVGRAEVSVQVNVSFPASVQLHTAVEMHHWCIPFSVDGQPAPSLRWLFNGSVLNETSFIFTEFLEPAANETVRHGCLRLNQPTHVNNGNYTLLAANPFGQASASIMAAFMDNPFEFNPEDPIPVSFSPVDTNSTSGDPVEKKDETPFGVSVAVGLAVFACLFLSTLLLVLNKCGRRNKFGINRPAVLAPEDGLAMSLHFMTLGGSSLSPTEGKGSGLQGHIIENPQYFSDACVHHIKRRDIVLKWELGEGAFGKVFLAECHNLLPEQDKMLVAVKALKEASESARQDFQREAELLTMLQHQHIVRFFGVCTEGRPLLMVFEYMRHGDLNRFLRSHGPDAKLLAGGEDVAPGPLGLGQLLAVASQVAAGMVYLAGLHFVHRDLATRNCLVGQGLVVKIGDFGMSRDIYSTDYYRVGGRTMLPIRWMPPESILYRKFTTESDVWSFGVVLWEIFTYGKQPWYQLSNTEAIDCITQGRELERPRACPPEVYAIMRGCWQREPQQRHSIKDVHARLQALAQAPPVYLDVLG

off-target kinases [4] = biological target: off-target kinases (Homo sapiens, UniProt P27361); details: MAPK3 (ERK1), ZLYTE, ATP Km app
off-target kinases (Homo sapiens, UniProt P27361), sequence (P27361 whole entry): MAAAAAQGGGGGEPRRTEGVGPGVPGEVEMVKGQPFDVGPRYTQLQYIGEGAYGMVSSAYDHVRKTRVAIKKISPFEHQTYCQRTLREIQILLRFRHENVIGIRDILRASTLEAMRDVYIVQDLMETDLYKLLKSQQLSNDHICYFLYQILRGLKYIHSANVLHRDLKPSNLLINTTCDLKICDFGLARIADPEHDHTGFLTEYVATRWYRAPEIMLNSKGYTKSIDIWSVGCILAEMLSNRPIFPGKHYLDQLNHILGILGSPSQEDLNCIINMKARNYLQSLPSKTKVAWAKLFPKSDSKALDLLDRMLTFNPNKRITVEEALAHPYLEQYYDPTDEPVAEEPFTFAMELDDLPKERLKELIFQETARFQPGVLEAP

off-target kinases [5] = biological target: off-target kinases (Homo sapiens, UniProt P28482); details: MAPK1 (ERK2), ZLYTE, ATP Km app
off-target kinases (Homo sapiens, UniProt P28482), sequence (P28482 whole entry): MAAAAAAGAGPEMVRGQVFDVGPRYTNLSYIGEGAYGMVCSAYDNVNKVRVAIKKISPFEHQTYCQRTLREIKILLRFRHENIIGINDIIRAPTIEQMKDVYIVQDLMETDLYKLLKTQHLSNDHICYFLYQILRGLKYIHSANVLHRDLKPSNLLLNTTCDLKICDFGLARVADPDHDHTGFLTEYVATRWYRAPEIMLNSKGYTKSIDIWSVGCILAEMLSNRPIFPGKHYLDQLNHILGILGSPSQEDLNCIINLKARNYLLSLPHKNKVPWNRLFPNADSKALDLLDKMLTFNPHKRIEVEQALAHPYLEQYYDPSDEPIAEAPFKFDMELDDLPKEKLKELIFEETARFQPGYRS

off-target kinases [6] = biological target: T1, off-target kinases (Homo sapiens, UniProt P41743); details: PRKCI (PKC iota), ZLYTE, ATP Km app
T1 sequence (P41743 1-596): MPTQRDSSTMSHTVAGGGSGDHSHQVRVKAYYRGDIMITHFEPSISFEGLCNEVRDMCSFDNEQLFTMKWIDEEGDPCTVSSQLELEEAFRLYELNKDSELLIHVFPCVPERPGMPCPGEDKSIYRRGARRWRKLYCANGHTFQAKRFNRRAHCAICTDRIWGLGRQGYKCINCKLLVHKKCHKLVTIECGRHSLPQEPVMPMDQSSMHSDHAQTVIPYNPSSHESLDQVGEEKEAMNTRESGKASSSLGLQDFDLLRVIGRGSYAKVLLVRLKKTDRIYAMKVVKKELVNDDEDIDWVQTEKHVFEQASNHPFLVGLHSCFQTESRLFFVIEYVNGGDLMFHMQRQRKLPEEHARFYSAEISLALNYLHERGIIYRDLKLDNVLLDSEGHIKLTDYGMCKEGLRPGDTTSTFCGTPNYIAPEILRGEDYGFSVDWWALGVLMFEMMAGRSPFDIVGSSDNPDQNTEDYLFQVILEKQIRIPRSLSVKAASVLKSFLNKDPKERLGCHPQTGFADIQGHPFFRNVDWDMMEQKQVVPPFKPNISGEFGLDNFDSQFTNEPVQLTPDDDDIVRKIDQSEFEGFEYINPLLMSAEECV

off-target kinases [7] = biological target: off-target kinases (Homo sapiens, UniProt Q14680); details: MELK, ZLYTE, ATP Km app
off-target kinases (Homo sapiens, UniProt Q14680), sequence (Q14680 whole entry): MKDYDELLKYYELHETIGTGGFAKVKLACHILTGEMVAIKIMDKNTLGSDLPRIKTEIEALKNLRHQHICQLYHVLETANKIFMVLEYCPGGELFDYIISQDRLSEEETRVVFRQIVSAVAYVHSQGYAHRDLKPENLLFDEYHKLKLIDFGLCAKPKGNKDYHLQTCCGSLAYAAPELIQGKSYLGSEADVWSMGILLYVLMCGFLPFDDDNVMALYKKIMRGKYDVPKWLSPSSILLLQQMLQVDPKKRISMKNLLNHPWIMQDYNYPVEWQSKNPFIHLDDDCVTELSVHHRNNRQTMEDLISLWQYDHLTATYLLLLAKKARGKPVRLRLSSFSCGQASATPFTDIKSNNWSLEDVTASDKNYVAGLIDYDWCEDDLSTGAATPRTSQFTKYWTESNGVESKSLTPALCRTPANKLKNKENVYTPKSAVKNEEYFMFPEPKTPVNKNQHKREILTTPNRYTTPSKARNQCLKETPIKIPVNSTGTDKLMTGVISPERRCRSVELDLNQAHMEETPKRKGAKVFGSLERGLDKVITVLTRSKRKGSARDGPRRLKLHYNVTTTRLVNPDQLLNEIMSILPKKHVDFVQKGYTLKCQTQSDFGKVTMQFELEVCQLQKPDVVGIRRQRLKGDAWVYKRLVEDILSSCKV

off-target kinases (Homo sapiens, UniProt O75716), sequence (O75716 whole entry): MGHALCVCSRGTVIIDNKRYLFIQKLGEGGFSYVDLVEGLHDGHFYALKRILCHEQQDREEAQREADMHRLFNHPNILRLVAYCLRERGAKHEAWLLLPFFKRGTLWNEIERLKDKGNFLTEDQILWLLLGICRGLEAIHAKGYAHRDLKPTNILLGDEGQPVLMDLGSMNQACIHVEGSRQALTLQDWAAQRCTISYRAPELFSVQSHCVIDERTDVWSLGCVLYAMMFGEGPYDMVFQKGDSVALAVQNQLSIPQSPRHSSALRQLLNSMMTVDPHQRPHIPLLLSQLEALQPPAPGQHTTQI

N#Cc1cc(-c2ncnc(Nc3ccc(N4CCN(C5COC5)CC4)cc3)n2)ccc1OC1CCOCC1 [Compound 1, 5-(4-((4-(4-(oxetan-3-yl)piperazin-1-yl)phenyl)amino)-1,3,5-triazin-2-yl)-2-((tetrahydro-2H-pyran-4-yl)oxy)benzonitrile]
inhibition (off-target kinases [1]; read-out: % Inhibition 1): 95%
inhibition (off-target kinases [1]; read-out: % Inhibition 2): 93%
inhibition (off-target kinases [1]; read-out: % Inhibition Avg): 94%
inhibition (off-target kinases [2]; read-out: % Inhibition 1): 6%
inhibition (off-target kinases [2]; read-out: % Inhibition 2): 3%
inhibition (off-target kinases [2]; read-out: % Inhibition Avg): 4%
inhibition (off-target kinases [3]; read-out: % Inhibition 1): 16%
inhibition (off-target kinases [3]; read-out: % Inhibition 2): 20%
inhibition (off-target kinases [3]; read-out: % Inhibition Avg): 18%
inhibition (off-target kinases [4]; read-out: % Inhibition 1): 3%
inhibition (off-target kinases [4]; read-out: % Inhibition 2): -2%
inhibition (off-target kinases [4]; read-out: % Inhibition Avg): 0%
inhibition (off-target kinases [5]; read-out: % Inhibition 1): 6%
inhibition (off-target kinases [5]; read-out: % Inhibition 2): 6%
inhibition (off-target kinases [5]; read-out: % Inhibition Avg): 6%
inhibition (off-target kinases [6]; read-out: % Inhibition 1): 5%
inhibition (off-target kinases [6]; read-out: % Inhibition 2): 7%
inhibition (off-target kinases [6]; read-out: % Inhibition Avg): 6%
inhibition (off-target kinases [7]; read-out: % Inhibition 1): 25%
inhibition (off-target kinases [7]; read-out: % Inhibition 2): 22%
inhibition (off-target kinases [7]; read-out: % Inhibition Avg): 23%

— patent US11572590B2, “Methods for evaluating tumor cell spheroids using 3D microfluidic cell culture device” (Dana-Farber Cancer Institute, Inc., priority 2017, dated 2023)
